For orientation: IC50 means the concentration at which inhibition is half-maximal. One may read the clearance as the volume of plasma or blood freed of the substance per unit of time. A higher clearance goes with efficient removal. The Kp is the ratio of the level in a tissue or fluid to that in plasma or blood. What is called inhibition is the relative decrease from the control value, in per cent. High values mean strong suppression, low ones little suppression.

These results are taken from ChEMBL document CHEMBL4316607, “Discovery of NR2B-selective antagonists via scaffold hopping and pharmacokinetic profile optimization” (Bioorg Med Chem Lett, 2019).

Series [1] concerns the target Glutamate receptor ionotropic, NMDA 2B (Rattus norvegicus, UniProt Q00960). In words: Displacement of [3H]-ifenprodil from NR2B receptor in rat brain cerebral cortex membranes incubated for 120 mins by liquid scintillation counting method. The series is classed as cell membranes. Background: In a radioligand displacement assay an active substance lowers the binding of a labelled ligand.

Series [2] addresses Glutamate receptor ionotropic, NMDA 2B (Mus musculus, UniProt P35438+Q01097). In words: Antagonist activity at mouse NR2B receptor expressed in HEK293 cells co-expressing NR1 subunit assessed as reduction in glutamic acid/glycine-induced calcium ion influx by fluorescence based assay. The class given is cell-based.
Series [3] is described as follows: Total clearance in Sprague-Dawley rat at 0.5 mg/kg, iv dosed via cassette dosing. To be noted: in vivo. The series is classed as ADME, organism-based.
Series [4] can be described thus: Oral bioavailability in Sprague-Dawley rat at 1 mg/kg dosed via cassette dosing. The class given is ADME, organism-based. To be noted: in vivo.
Series [5] in a line: […] coefficient, ratio of total drug level in brain to plasma in Sprague-Dawley rat at 0.5 mg/kg, iv dosed via cassette dosing measured after 0.5 hrs. The conditions noted are these: brain and plasma. The class given is ADME, organism-based.
Series [6] deals with Rattus norvegicus. In words: Analgesic activity in rat model of partial sciatic nerve ligation model assessed as increase in pain threshold at 2.5 to 10 mg/kg, po measured after 3 hrs by Von Frey filament test. The class given is functional. The conditions noted are these: read-out: MED.
Series [7] addresses hERG (KCNH2) (Homo sapiens, UniProt Q12809). The series is described as follows: Inhibition of human ERG expressed in HEK293 cells at 1 uM. The series is classed as cell-based. The conditions noted are these: HEK293 cells expressing human ERG.

Chain of Glutamate receptor ionotropic, NMDA 2B (Rattus norvegicus, UniProt Q00960) (Q00960 whole entry): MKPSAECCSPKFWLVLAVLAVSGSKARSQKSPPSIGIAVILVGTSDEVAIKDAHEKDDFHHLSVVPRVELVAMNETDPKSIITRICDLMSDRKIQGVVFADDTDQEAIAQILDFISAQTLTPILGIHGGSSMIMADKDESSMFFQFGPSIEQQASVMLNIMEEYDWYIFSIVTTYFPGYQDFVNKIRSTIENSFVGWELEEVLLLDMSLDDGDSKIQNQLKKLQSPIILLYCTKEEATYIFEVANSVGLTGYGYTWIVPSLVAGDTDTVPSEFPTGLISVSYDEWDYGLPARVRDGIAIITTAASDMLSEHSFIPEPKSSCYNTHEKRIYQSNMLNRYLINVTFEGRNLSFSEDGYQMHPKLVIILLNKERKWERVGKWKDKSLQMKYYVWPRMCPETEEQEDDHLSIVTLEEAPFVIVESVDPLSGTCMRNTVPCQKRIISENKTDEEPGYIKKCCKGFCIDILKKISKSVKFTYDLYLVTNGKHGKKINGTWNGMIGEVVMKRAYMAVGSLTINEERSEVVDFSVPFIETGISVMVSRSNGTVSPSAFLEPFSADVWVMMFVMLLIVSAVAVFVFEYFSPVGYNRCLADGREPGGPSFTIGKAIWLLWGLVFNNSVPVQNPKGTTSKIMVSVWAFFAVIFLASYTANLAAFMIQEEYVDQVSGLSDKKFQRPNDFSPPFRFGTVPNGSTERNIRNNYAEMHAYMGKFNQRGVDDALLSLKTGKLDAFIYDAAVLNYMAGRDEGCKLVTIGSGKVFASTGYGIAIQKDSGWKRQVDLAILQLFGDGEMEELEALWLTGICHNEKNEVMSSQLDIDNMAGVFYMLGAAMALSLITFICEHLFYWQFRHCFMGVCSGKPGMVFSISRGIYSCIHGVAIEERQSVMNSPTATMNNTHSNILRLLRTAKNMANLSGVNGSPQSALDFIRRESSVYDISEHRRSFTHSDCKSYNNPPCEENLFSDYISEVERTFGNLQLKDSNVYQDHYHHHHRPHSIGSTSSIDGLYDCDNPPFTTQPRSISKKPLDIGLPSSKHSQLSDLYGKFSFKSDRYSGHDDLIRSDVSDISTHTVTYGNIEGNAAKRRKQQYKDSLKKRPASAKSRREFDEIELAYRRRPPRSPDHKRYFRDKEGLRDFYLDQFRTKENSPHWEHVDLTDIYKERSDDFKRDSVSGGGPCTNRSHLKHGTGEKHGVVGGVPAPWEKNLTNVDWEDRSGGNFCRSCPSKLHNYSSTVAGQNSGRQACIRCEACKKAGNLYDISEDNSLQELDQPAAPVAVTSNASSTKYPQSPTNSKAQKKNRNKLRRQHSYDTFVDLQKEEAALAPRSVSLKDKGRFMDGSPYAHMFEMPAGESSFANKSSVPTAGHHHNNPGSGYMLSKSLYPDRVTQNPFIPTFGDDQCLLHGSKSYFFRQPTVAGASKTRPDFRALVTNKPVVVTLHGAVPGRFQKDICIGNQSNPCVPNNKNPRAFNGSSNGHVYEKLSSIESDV
Chain of hERG (KCNH2) (Q12809 whole entry): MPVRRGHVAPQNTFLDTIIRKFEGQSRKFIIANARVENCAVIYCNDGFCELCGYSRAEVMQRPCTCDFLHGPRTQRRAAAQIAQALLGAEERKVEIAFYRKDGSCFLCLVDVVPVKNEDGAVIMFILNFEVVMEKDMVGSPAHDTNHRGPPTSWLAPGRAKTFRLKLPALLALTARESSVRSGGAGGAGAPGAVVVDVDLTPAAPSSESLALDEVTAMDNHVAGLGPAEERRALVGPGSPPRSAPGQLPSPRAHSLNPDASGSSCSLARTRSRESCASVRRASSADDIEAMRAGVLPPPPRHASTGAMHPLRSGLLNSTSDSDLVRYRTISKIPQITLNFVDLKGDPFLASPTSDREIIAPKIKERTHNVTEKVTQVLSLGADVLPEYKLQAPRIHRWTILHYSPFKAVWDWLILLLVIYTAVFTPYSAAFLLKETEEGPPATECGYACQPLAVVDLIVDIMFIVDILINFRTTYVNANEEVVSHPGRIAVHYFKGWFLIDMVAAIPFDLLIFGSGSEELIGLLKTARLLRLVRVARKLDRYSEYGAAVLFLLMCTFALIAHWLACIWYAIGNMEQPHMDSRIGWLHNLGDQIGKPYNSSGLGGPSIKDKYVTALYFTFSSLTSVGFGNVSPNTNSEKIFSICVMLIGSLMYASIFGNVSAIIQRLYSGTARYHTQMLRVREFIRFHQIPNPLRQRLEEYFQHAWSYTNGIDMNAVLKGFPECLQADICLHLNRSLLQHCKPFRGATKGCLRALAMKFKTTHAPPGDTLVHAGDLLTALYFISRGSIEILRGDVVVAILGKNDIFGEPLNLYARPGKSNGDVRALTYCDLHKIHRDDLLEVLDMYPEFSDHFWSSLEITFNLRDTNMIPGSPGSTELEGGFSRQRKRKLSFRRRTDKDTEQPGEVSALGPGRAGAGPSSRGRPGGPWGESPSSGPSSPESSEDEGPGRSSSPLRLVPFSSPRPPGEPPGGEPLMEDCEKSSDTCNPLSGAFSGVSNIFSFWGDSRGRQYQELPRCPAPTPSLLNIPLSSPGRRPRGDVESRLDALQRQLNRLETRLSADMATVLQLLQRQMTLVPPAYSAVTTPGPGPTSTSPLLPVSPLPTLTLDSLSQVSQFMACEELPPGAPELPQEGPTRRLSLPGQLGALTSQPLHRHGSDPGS
Chain of Glutamate receptor ionotropic, NMDA 2B (Mus musculus, UniProt P35438+Q01097) (Q01097 whole entry, one chain of several): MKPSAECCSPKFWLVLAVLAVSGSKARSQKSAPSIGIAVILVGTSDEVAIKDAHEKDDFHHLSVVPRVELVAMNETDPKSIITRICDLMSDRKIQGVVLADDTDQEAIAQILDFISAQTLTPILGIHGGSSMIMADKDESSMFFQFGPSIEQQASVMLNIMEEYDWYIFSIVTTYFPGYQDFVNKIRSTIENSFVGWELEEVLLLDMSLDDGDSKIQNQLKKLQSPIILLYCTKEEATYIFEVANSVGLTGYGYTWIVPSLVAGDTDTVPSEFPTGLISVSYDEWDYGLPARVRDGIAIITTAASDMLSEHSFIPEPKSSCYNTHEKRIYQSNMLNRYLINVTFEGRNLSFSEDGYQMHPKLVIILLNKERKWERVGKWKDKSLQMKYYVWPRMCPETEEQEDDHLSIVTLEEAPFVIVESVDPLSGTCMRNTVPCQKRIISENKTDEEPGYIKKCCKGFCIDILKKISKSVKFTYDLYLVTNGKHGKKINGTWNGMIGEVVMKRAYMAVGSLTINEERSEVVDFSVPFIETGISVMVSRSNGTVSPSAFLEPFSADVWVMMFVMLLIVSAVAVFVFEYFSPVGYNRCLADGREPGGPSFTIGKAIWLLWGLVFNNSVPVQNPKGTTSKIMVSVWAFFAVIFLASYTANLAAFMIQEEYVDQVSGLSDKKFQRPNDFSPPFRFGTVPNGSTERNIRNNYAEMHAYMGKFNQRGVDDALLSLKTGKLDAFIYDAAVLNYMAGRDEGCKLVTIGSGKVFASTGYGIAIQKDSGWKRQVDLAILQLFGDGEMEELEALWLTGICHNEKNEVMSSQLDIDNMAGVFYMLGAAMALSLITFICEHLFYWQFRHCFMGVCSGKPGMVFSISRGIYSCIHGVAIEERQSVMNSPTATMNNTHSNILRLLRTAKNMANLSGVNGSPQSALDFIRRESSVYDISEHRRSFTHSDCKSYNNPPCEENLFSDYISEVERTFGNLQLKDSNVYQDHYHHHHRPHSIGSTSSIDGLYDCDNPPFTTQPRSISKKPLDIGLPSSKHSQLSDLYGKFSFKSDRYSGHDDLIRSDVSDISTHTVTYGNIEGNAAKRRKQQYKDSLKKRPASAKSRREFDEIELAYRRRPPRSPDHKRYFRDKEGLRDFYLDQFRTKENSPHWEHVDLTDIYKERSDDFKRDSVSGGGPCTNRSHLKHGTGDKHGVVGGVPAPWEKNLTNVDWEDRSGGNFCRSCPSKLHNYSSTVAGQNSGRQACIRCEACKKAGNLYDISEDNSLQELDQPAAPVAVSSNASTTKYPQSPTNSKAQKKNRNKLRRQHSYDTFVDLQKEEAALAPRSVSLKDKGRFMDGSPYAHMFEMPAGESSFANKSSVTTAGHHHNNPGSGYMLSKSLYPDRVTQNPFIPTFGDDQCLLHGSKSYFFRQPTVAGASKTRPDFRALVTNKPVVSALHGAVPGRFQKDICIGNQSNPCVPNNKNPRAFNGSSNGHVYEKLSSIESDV

For the compound `O=C(c1cc(-c2ccc(=O)[nH]c2)on1)N1CCC(Cc2ccccc2)CC1`, the IC50 in series [1] and in series [2] was 63.1 nM in each case. Also, in series [3], the clearance turned out to be 19.3 mL/min/kg. In series [4], the bioavailability was determined as 18.4%. The concentration ratio (Kp) at 0.5 h in series [5] was 0.37.

As for `COc1ccc(N2CCN(C(=O)C(=O)Nc3ccc4[nH]c(=O)oc4c3)CC2)cc1`, the IC50 was 251 nM in series [1] and 200 nM in series [2].

Take `C[C@@H]1CN(C(=O)C(=O)Nc2ccc3[nH]c(=O)oc3c2)CCN1c1ccc(Cl)cc1`: the IC50 is 63.1 nM in series [1] and 6.31 nM in series [2]. In addition, the clearance in series [3] came to 15.6 mL/min/kg. Also, the bioavailability in series [4] stood at 52.6%. In series [5], the concentration ratio (Kp) at 0.5 h came out at 1.85. Besides, the minimal effective dose in series [6] is 10 mg/kg. In addition, at 1 µM the inhibition in series [7] was 25%.

For `C[C@H]1CN(C(=O)C(=O)Nc2ccc3[nH]c(=O)oc3c2)CCN1c1ccc(Cl)cc1`, the IC50 in series [1] is 631 nM; in series [2], 100 nM.

Turning to `O=C(Nc1ccc2[nH]c(=O)oc2c1)C(=O)N1CCN(Cc2ccc(Cl)cc2)CC1`, the IC50 in series [1] is 501 nM; in series [2] it was 63.1 nM. The compound further came in with a clearance in series [3] of 6.8 mL/min/kg. Further, in series [4], the bioavailability came to 7.4%. Further, the Kp at 0.5 h in series [5] stood at 0.41.

`O=C(c1cc(-c2cc[nH]n2)on1)N1CCC(Cc2ccc(Cl)cc2)CC1`: the IC50 in series [1] is 63.1 nM; in series [2] it was 39.8 nM. The compound further gave a clearance in series [3] of 29.2 mL/min/kg. Besides, the bioavailability in series [4] came to 0.6%. Besides, the Kp at 0.5 h in series [5] turned out to be 3.27.

As to `O=C(Nc1ccc2[nH]c(=O)oc2c1)C(=O)N1CCN(c2ccc(Cl)cc2)CC1`, the IC50 in series [1] is 15.8 nM. This compound also displayed a clearance in series [3] of 7.2 mL/min/kg. The bioavailability in series [4] is 17.8%. In addition, in series [5], the Kp at 0.5 h worked out at 0.53.

As to `O=C1Cc2cc(NC(=O)C(=O)N3CCN(c4ccc(Cl)cc4)CC3)ccc2N1`, in series [1], the IC50 was greater than 1000 nM.

In the case of `O[C@]1(Cc2cc(-c3cn[nH]c3)on2)CC[C@@H](Cc2ccc(C(F)(F)F)cc2)CC1`, the IC50 in series [1] was 100 nM; in series [2], 12.6 nM. The same compound showed a clearance in series [3] of 4 mL/min/kg. Further, in series [4], the bioavailability worked out at 67.5%. Also, the partition ratio (Kp) at 0.5 h in series [5] amounted to 2.66.

For `O=C(Nc1ccc2[nH]c(=O)oc2c1)C(=O)N1CCN(c2ccccc2)CC1`, the IC50 in series [1] was greater than 1000 nM.

Take `O=C(Nc1ccc2[nH]c(=O)oc2c1)C(=O)N1CCN(c2ccc(C(F)(F)F)cc2)CC1`: the results for the IC50 in series [1] and in series [2] were 25.1 nM and 6.31 nM, respectively. The compound further yielded a clearance in series [3] of 15.1 mL/min/kg. Further, the bioavailability in series [4] came out at 24.8%. Also, the Kp at 0.5 h in series [5] stood at 2.99.

As for `O=C(c1cc(-c2ccc(=O)[nH]c2)on1)N1CCN(Cc2ccc(Cl)cc2)CC1`, the IC50 in series [1] is greater than 1000 nM.

Regarding `O=C(c1cc(-c2ccc(=O)[nH]c2)on1)N1CCC(Cc2ccc(Cl)cc2)CC1`, the half-maximal inhibitory concentration (IC50) in series [1] is 25.1 nM; in series [2] it was 10 nM. In addition, the clearance in series [3] amounted to 5.4 mL/min/kg. Moreover, the bioavailability in series [4] came to 9.3%. Also, in series [5], the concentration ratio (Kp) at 0.5 h turned out to be 0.38.

For the compound `O=C(Nc1ccc2[nH]c(=O)oc2c1)C(=O)N1CCN(c2ccc(F)cc2)CC1`, the IC50 in series [1] and in series [2] was 126 nM throughout. Further, the clearance in series [3] came out at 11.1 mL/min/kg. In addition, the bioavailability in series [4] was found to be 39.3%.

In the case of `O=C(Nc1ccc2[nH]c(=O)oc2c1)C(=O)N1CCN(c2cc(F)cc(F)c2)CC1`, the values for the 50% inhibitory concentration (IC50) in series [1] and in series [2] were 158 nM and 100 nM, respectively.

For `O=C(Nc1ccc2[nH]c(=O)oc2c1)C(=O)N1CCN(c2ccc(F)c(F)c2)CC1`, the IC50 in series [1] was 20 nM; in series [2], 10 nM. Further, the clearance in series [3] was 4 mL/min/kg. In series [4], the bioavailability amounted to 13%. Also, in series [5], the Kp at 0.5 h worked out at 0.82.

As for `O=C(Nc1ccc2[nH]c(=O)oc2c1)C(=O)N1CCN(c2ccc(F)c(Cl)c2)CC1`, the results for the half-inhibitory concentration (IC50) in series [1] and in series [2] were 31.6 nM and 10 nM, respectively. In addition, the clearance in series [3] came out at 18.3 mL/min/kg. Further, the bioavailability in series [4] is 24.6%. Also, the Kp at 0.5 h in series [5] came to 1.24.

`O=C(c1cc(-c2cc[nH]n2)on1)N1CCC(Cc2ccccc2)CC1`: the IC50 in series [1] was 79.4 nM; in series [2], 50.1 nM. In series [3], this compound had a clearance of 71.6 mL/min/kg. Also, the bioavailability in series [4] was 0.2%. The Kp at 0.5 h in series [5] came out at 3.89.

`C[C@@H]1CN(C(=O)C(=O)Nc2ccc3[nH]c(=O)oc3c2)CCN1c1ccc(F)c(F)c1`: the IC50 was 63.1 nM in series [1] and 10 nM in series [2]. Besides, the clearance in series [3] was 15.9 mL/min/kg. The bioavailability in series [4] was 25.3%. The Kp at 0.5 h in series [5] worked out at 1.89.

As for `O=C(c1cc(-c2ccc(=O)[nH]c2)on1)N1CCC(Cc2ccc(F)cc2)CC1`, the IC50 was 50.1 nM in series [1] and 39.8 nM in series [2]. In series [3], this compound gave a clearance of 19.7 mL/min/kg. The bioavailability in series [4] came to 18.4%. Besides, in series [5], the Kp at 0.5 h came to 0.5.

On to `C[C@@H]1CN(c2ccc(Cl)cc2)CCN1C(=O)C(=O)Nc1ccc2[nH]c(=O)oc2c1`, for which the IC50 in series [1] is 31.6 nM; in series [2], 6.31 nM. In series [3], this compound returned a clearance of 5.4 mL/min/kg. Besides, in series [4], the bioavailability came out at 130%. Further, the Kp at 0.5 h in series [5] is 0.95. In series [6], the minimal effective dose stood at 10 mg/kg. Further, the inhibition at 1 µM in series [7] stood at 36%.

Turning to `C[C@@H]1CN(C(=O)C(=O)Nc2ccc3[nH]c(=O)oc3c2)CCN1c1ccc(Cl)c(F)c1`, the IC50 in series [1] is 50.1 nM; in series [2], 3.16 nM. This compound returned a clearance in series [3] of 6 mL/min/kg. Besides, the bioavailability in series [4] was determined as 32%. Moreover, in series [5], the Kp at 0.5 h was found to be 1.19. In series [6], the minimal effective dose was determined as 2.5 mg/kg. Testing at 1 µM in series [7] gave an inhibition of 10%.

For the compound `O=C(c1cc(-c2cc[nH]n2)on1)N1CCC(Cc2ccc(F)cc2)CC1`, the values for the IC50 in series [1] and in series [2] were 79.4 nM and 63.1 nM, respectively.

In the case of `C[C@@H]1CN(c2ccc(F)c(F)c2)CCN1C(=O)C(=O)Nc1ccc2[nH]c(=O)oc2c1`, the IC50 in series [1] is 50.1 nM; in series [2] it was 6.31 nM. This compound also displayed a clearance in series [3] of 5.6 mL/min/kg. Further, in series [4], the bioavailability was found to be 118%. The partition ratio (Kp) at 0.5 h in series [5] worked out at 0.67.

`O=C(Nc1ccc2[nH]c(=O)oc2c1)C(=O)N1CCN(c2ccc(Cl)c(F)c2)CC1` had an IC50 in series [1] of 12.6 nM. The same compound registered a clearance in series [3] of 5.6 mL/min/kg. Besides, the bioavailability in series [4] amounted to 28.2%. Further, in series [5], the Kp at 0.5 h worked out at 0.79.

For `COc1ccc(N2CCN(C(=O)C(=O)Nc3ccc4[nH]c(=O)oc4c3)CC2)cc1F`, the IC50 in series [1] and in series [2] was 15.8 nM throughout. The compound also returned a clearance in series [3] of 101 mL/min/kg. For the same compound, in series [4], the bioavailability turned out to be 0.6%. For the same compound, the Kp at 0.5 h in series [5] was determined as 3.17.

For `O=C(Nc1ccc2[nH]c(=O)oc2c1)C(=O)N1CCN(c2ccc(C(F)(F)F)c(F)c2)CC1`, the 50% inhibitory concentration (IC50) is 15.8 nM in series [1] and 1 nM in series [2]. Also, the clearance in series [3] was 5.6 mL/min/kg. In addition, in series [4], the bioavailability came to 8.7%. In series [5], the Kp at 0.5 h is 0.65.

In turn, `C[C@H]1CN(c2ccc(Cl)cc2)CCN1C(=O)C(=O)Nc1ccc2[nH]c(=O)oc2c1` showed a concentration for half-maximal inhibition (IC50) in series [1] greater than 1000 nM.

In series [1], `O=C1CCc2cc(NC(=O)C(=O)N3CCN(c4ccc(Cl)cc4)CC3)ccc2N1` showed an IC50 greater than 1000 nM.

Regarding `O=C(c1cc(-c2ccc(=O)[nH]c2)on1)N1CCN(c2ccc(Cl)cc2)CC1`, in series [1], the IC50 is greater than 1000 nM.

With `C[C@@H]1CN(c2ccc(Cl)c(F)c2)CCN1C(=O)C(=O)Nc1ccc2[nH]c(=O)oc2c1`, the figures for the 50% inhibitory concentration (IC50) in series [1] and in series [2] were 12.6 nM and 2 nM, respectively. In addition, the clearance in series [3] was 1.37 mL/min/kg. The bioavailability in series [4] was found to be 30.4%. The Kp at 0.5 h in series [5] is 0.99. Also, in series [6], the minimal effective dose came out at 5 mg/kg. In series [7], this compound yielded an inhibition at 1 µM of 29%.
